pKi: −log10 of the molar value. Where only a bound is given, the exact number is not on record here.

As a reminder, the pKi is the Ki on a negative log10 scale, so that one unit is a factor of ten. A high value points to a small Ki.

Chain of CES2 (O00748 whole entry, looked up): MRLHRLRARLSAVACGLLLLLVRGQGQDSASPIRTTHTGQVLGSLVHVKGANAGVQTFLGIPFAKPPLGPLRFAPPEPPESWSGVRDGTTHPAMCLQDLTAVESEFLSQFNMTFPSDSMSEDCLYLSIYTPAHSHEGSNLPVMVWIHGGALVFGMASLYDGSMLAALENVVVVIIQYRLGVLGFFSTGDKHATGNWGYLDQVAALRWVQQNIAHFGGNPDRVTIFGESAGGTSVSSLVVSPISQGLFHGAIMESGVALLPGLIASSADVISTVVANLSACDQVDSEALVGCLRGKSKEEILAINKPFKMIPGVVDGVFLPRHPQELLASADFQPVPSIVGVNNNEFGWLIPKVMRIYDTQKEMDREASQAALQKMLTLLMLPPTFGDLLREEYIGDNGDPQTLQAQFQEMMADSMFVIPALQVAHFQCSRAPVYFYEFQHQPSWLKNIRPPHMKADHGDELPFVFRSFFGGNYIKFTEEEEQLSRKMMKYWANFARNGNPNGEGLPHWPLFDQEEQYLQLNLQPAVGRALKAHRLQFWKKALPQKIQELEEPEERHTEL

This assay concerns the target CES2 (Homo sapiens, UniProt O00748). Nature of the assay: Enzyme Inhibition Assay. As to conditions: pH 7.4; 25 °C. Here is the method: CE inhibition was determined using a spectrophotometric multiwell plate assay with o-NPA as a substrate. The rate of change in absorbance at 420 nm was measured at 15 sec intervals for 5 min and compared to wells containing no inhibitor. […] Further analysis of inhibitors was performed in condition that inhibitor concentrations ranged from 1 pM to 100 uM. Data were fitted to the equation. Examination of curve fits to identify the best model for enzyme inhibition. Ki values were then calculated from the equation predicted by Prism to be the best fit for the experimental data.
As to `COc1ccccc1C(=O)C(=O)c1ccccc1OC` [1,2-bis(2-methoxyphenyl)ethane-1,2-dione], the pKi was less than 4.00.

The compound `O=C1C(=O)c2cccc3c2N(CCC3)C1=O` [1-azatricyclo[7.3.1.0^{5,13}]trideca-5,7,9(13)-triene-2,3,4-trione] had a pKi of less than 4.00.

The compound `O=C1C(=O)c2cccnc2-c2ncccc21` [5,6-dihydro-1=10-phenantroline-5,6-dione] showed a negative logarithm of the Ki (pKi) of less than 4.00.

The record behind these values is BindingDB's records for doi:10.1021/jm0706867 (St. Jude Research Hospital, 2007).
